± gives the standard deviation of the averaged measurements.
Columns and labels:
Assay in all cases: level (log10 ratio to DMSO vehicle control); higher = higher biomarker level / cell amount than vehicle control
Conditions in all cases: in DMSO
[1] = compound: C=CC(F)(F)C(F)(F)C(F)(F)C(F)(F)C(F)(F)C(F)(F)C(F)(F)C(F)(F)C=C [1,8-Divinylperfluorooctane]
Protocol: (§1)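 BioMAP Diversity Plus panel of 12 human primary cell co-culture systems (3C, 4H, LPS, SAg, BT, BF4T, BE3C, CASM3C, HDF3CGF, KF3CT, MyoF, Mphg). Compounds were added 1 h before stimulation and left for 24 h (MyoF 48 h; BT 72 h for soluble read-outs or 6 d for IgG). Biomarkers were read by ELISA, cytotoxicity by SRB, PBMC viability and proliferation by Alamar Blue. Each well value was divided by the mean of 8 DMSO control wells on the same plate and log10 transformed; duplicate blinded samples were tested at 4 concentrations.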

[2] = compound: OCCC(F)(F)C(F)(F)C(F)(F)C(F)(F)C(F)(F)C(F)(F)F [6:2 Fluorotelomer alcohol]
Protocol: as §1

[3] = compound: FC(F)C(F)(F)COCC1CO1 [((2,2,3,3-Tetrafluoropropoxy)methyl)oxirane]
Protocol: as §1

[4] = compound: O=C(O)C(F)(F)C(F)(F)C(F)(F)C(F)(F)C(F)(F)C(F)(F)C(F)(F)C(F)F [9-H-Perfluorononanoic acid]
Protocol: as §1

[5] = compound: O=C(O)C(F)(F)OC(F)(F)C(F)(F)OC(F)(F)F [Perfluoro-3,6-dioxaheptanoic acid]
Protocol: as §1

[6] = compound: O=C(O)C(F)(F)OC(F)(F)C(F)(F)OC(F)(F)C(=O)O [Perfluoro-3,6-dioxaoctane-1,8-dioic acid]
Protocol: as §1

| Test System | level (log10) ([1]; 6700 nM) | level (log10) ([1]; 20000 nM) | level (log10) ([2]; 6700 nM) | level (log10) ([2]; 20000 nM) | level (log10) ([3]; 6700 nM) | level (log10) ([3]; 20000 nM) | level (log10) ([3]; 60000 nM) | level (log10) ([4]; 6700 nM) | level (log10) ([4]; 20000 nM) | level (log10) ([4]; 60000 nM) | level (log10) ([5]; 6700 nM) | level (log10) ([5]; 20000 nM) | level (log10) ([5]; 60000 nM) | level (log10) ([6]; 6700 nM) | level (log10) ([6]; 20000 nM) | level (log10) ([6]; 60000 nM) |
| --- | --- | --- | --- | --- | --- | --- | --- | --- | --- | --- | --- | --- | --- | --- | --- | --- |
| BF4T:tPA | -0.0015 ± 0.018 | 0.0125 ± 0.015 | -0.0215 ± 0.032 | -0.0135 ± 0.021 | -0.009 ± 0.018 | -0.001 ± 0.033 | 0.016 ± 0.064 | -0.094 ± 0.014 | -0.128 ± 0.012 | -0.122 ± 0.019 | -0.0365 ± 0.05 | -0.0115 ± 0.063 | -0.041 ± 0.068 | -0.003 ± 0.0028 | -0.024 ± 0.018 | 0.0155 ± 0.059 |
| BF4T:CXCL8/IL-8 | 0.009 ± 0.03 | 0.0155 ± 0.013 | 0.0185 ± 0.015 | 0.0005 ± 0.005 | 0.0165 ± 0.013 | 0.003 ± 0.0042 | 0.0255 ± 0.021 | 0.0365 ± 0.021 | 0.038 ± 0.023 | 0.0565 ± 0.016 | 0.044 ± 0.034 | 0.0475 ± 0.015 | 0.073 ± 0.045 | -0.011 ± 0.023 | -0.0305 ± 0.0064 | -0.0025 ± 0.037 |
| 4H:CCL2/MCP-1 | -0.0315 ± 0.005 | 0.013 ± 0.035 | 0.009 ± 0.0085 | -0.0065 ± 0.018 | 0.021 ± 0.023 | -0.0005 ± 0.042 | 0.0235 ± 0.066 | -0.028 ± 0.013 | -0.059 ± 0.017 | -0.0405 ± 0.081 | -0.0265 ± 0.037 | -0.0345 ± 0.018 | 0.031 ± 0.0085 | 0.003 ± 0.041 | -0.032 ± 0.018 | 0.0205 ± 0.0035 |
| SAg:CD38 | -0.009 ± 0.016 | -0.0055 ± 0.0092 | 0.0115 ± 0.026 | -0.008 ± 0.0071 | -0.007 ± 0.0014 | -0.006 ± 0.011 | 0.002 ± 0.023 | 0.0255 ± 0.039 | -0.015 ± 0.0085 | -0.016 ± 0.011 | -0.0055 ± 0.052 | -0.003 ± 0.047 | -0.014 ± 0.024 | -0.001 | 0.0015 ± 0.0021 | 0.0055 ± 0.0021 |
| 3C:HLA-DR | -0.0185 ± 0.028 | -0.007 ± 0.013 | 0.0095 ± 0.012 | -0.01 ± 0.021 | 0.012 ± 0.0085 | 0.013 ± 0.021 | 0.0235 ± 0.043 | -0.005 ± 0.0028 | 0.0005 ± 0.0021 | 0.028 ± 0.02 | -0.035 ± 0.033 | -0.0075 ± 0.0078 | -0.0115 ± 0.021 | 0.008 ± 0.018 | -0.037 ± 0.013 | -0.0065 ± 0.012 |
| BE3C:CD54/ICAM-1 | 0.0085 ± 0.015 | 0.0055 ± 0.013 | 0.0035 ± 0.018 | 0.001 ± 0.016 | 0.011 ± 0.011 | -0.0035 ± 0.0092 | 0.011 ± 0.027 | -0.0435 ± 0.012 | -0.043 ± 0.0042 | -0.071 ± 0.0057 | -0.032 ± 0.0042 | -0.0125 ± 0.0021 | -0.0325 ± 0.015 | -0.003 ± 0.021 | -0.0035 ± 0.0092 | 0.002 ± 0.038 |
| SAg:CXCL8/IL-8 | -0.0315 ± 0.013 | 0.006 ± 0.05 | -0.0035 ± 0.011 | 0.0035 ± 0.0021 | -0.004 ± 0.011 | -0.0335 ± 0.011 | 0.02 ± 0.018 | 0.01 ± 0.018 | 0.0005 ± 0.0064 | 0.0715 ± 0.013 | 0.0055 ± 0.0035 | 0.034 ± 0.0071 | 0.0735 ± 0.04 | -0.006 ± 0.0085 | -0.0015 ± 0.0064 | 0.0155 ± 0.035 |
| BE3C:CXCL10/IP-10 | 0.0075 ± 0.0021 | 0 ± 0.017 | -0.0035 ± 0.005 | 0.006 ± 0.0028 | -0.007 ± 0.011 | -0.0125 ± 0.016 | 0.002 ± 0.0099 | -0.021 ± 0.0057 | -0.04 ± 0.0042 | -0.149 ± 0.04 | -0.03 ± 0.016 | -0.0115 ± 0.018 | -0.0095 ± 0.0078 | -0.003 ± 0.0057 | 0 ± 0.0014 | 0.005 ± 0.013 |
| 3C:SRB | 0.0135 ± 0.0021 | 0.027 ± 0.0042 | -0.006 ± 0.023 | 0.004 ± 0.028 | -0.0085 ± 0.0078 | -0.008 ± 0.0028 | -0.004 ± 0.0099 | -0.005 ± 0.028 | -0.0115 ± 0.016 | -0.052 ± 0.025 | -0.01 ± 0.0071 | -0.022 ± 0.0057 | -0.008 ± 0.0042 | 0.0055 ± 0.0064 | -0.0055 ± 0.016 | -0.004 ± 0.0014 |
| LPS:SRB | -0.005 ± 0.0057 | 0.013 ± 0.0099 | 0.0095 ± 0.0078 | 0.004 ± 0.0071 | -0.0145 ± 0.0035 | -0.005 | -0.0105 ± 0.0092 | -0.005 ± 0.016 | -0.01 ± 0.014 | -0.022 ± 0.0099 | -0.011 ± 0.0028 | -0.0105 ± 0.00071 | -0.0095 ± 0.00071 | 0.007 ± 0.011 | 0.005 ± 0.021 | 0.0115 ± 0.025 |
| BT:B cell Proliferation | 0.0035 ± 0.037 | 0.035 ± 0.0085 | 0.022 ± 0.0057 | -0.01 ± 0.014 | -0.021 ± 0.02 | -0.014 ± 0.0042 | 0.0105 ± 0.0092 | 0.0245 ± 0.0021 | 0.0495 ± 0.00071 | 0.108 ± 0.0028 | 0.015 ± 0.0028 | 0.031 ± 0.048 | 0.0535 ± 0.042 | 0.0095 ± 0.016 | -0.009 ± 0.023 | 0.0035 ± 0.0035 |
| LPS:sPGE2 | -0.005 ± 0.034 | -0.035 ± 0.075 | -0.028 ± 0.05 | -0.0465 ± 0.039 | -0.0355 ± 0.032 | -0.022 ± 0.011 | -0.037 ± 0.014 | 0.005 ± 0.0057 | -0.0205 ± 0.0092 | -0.096 ± 0.0042 | -0.0065 ± 0.047 | -0.0395 ± 0.018 | -0.006 ± 0.021 | -0.0045 ± 0.013 | -0.006 ± 0.011 | 0.0045 ± 0.0078 |
| BE3C:CXCL8/IL-8 | 0.0025 ± 0.021 | 0.01 ± 0.02 | 0.01 ± 0.048 | -0.0085 ± 0.021 | 0.0015 ± 0.00071 | -0.005 ± 0.025 | -0.009 ± 0.021 | 0.0255 ± 0.084 | 0.0435 ± 0.059 | 0.0385 ± 0.023 | -0.041 ± 0.033 | -0.007 ± 0.011 | -0.0155 ± 0.05 | -0.0485 ± 0.0092 | -0.0355 ± 0.0078 | 0.007 ± 0.05 |
| SAg:SRB | -0.0005 ± 0.0021 | 0.0135 ± 0.0021 | -0.003 ± 0.027 | 0 ± 0.02 | -0.007 ± 0.0057 | -0.0075 ± 0.0064 | -0.005 ± 0.014 | -0.002 ± 0.025 | -0.003 ± 0.013 | -0.036 ± 0.0071 | -0.0085 ± 0.0035 | -0.0175 ± 0.00071 | -0.008 ± 0.0085 | 0.007 ± 0.013 | 0.0005 ± 0.0064 | 0.0045 ± 0.00071 |
| BE3C:CXCL9/MIG | -0.001 ± 0.0014 | -0.005 ± 0.0028 | 0.01 ± 0.0057 | 0.001 ± 0.0057 | 0 ± 0.0042 | -0.0115 ± 0.0092 | 0.003 ± 0.02 | -0.0255 ± 0.005 | -0.0285 ± 0.005 | -0.02 ± 0.0099 | -0.016 ± 0.0014 | -0.003 ± 0.021 | 0.0025 ± 0.0035 | 0.0015 ± 0.0064 | -0.003 ± 0.0099 | 0.0015 ± 0.0021 |
| 3C:CD87/uPAR | -0.0065 ± 0.022 | 0.0105 ± 0.025 | -0.0205 ± 0.059 | -0.0095 ± 0.042 | 0.0035 ± 0.012 | -0.002 ± 0.0042 | 0.009 ± 0.0042 | -0.013 ± 0.0042 | -0.0105 ± 0.023 | -0.029 ± 0.034 | -0.0205 ± 0.00071 | -0.0015 ± 0.019 | -0.015 ± 0.028 | 0.016 ± 0.044 | -0.013 ± 0.013 | 0.0195 ± 0.011 |

— the supplement of paper PMC10331698
